Values joined by “and” are separate entries in the source; they are usually repeats but may differ in a detail not shown here. Identical values can stand only once. Like-named read-outs stand apart in the source and are kept apart here.
How the values were obtained:
Solubility in water = assay type: physicochemical
Description: The solubility of compounds of formula (I) in water was measured and compared with that of compounds of formula (I′).
More specifically, 4-[{[3-(6-{[(3S)-3-(morpholin-4-ylmethyl)-3,4-dihydroisoquinolin-2(1H)-yl]carbonyl}-1,3-benzodioxol-5-yl)-5,6,7,8-tetrahydroindolizin-1-yl]carbonyl}-(phenyl)amino]phenyl disodium phosphate (also referred to as the compound of Example 1) was tested and compared to N-(4-hydroxyphenyl)-3-{6-[((3S)-3-(4-morpholinylmethyl)-3,4-dihydro-2(1H)-isoquinolinyl)carbonyl]-1,3-benzodioxol-5-yl}-N-phenyl-5,6,7,8-tetrahydro-1-indolizine carboxamide (also referred to as the drug from Example 1).
(§1) The solubilities of the compounds were also measured in a medium buffered to physiological pH (cf. Table 3).

[1] = Solubility in aqueous medium buffered to physiological pH (phosphate 0.33M, pH 7.4); assay type: physicochemical; conditions: phosphate 0.33M, pH = 7.4
Description: as §1

[2] = Pharmacokinetic profile / in vivo conversion after oral administration to SCID mice (plasma, LC-MS/MS); set-up: species or system female SCID mice; conditions: female, mouse, po; for Cmax: read-out: Cmax, compound measured: Drug from Example 1; for AUC(0-t): read-out: AUCt, compound measured: Drug from Example 1; for Tmax: read-out: Tmax, compound measured: Drug from Example 1
How it was run: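 Female SCID mice were gavaged with phosphate prodrug in EtOH/PEG300/water (10/40/50) at 3 or 25 mg/kg, or in aqueous media (1 mM Na2CO3, water, or 1M Na2CO3) at 3–100 mg/kg. Plasma prodrug and hydroxylated drug were measured by TFC-LC-MS/MS over 0.25–24 h. Non-compartmental analysis used mean concentrations.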

[3] = In vitro test on human Caco-2 cells, cellular transport A to B; assay type: in vitro ADME; conditions: human, Caco-2, drug incubated and measured, A to B, 1 or 3 μM, read-out: Papp, the drug after incubation of the drug
How it was run: (§2)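 Apical-to-basolateral transport, prodrug or drug dosed apically at 1 or 3 μM in duplicate for 120 minutes. Apical samples at 0 and 120 min and basolateral samples at 120 min quantified by LC-MS/MS (LOQ 2 ng/mL) for prodrug and drug. Papp, predicted human Fabs and percent recovery calculated.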

human Caco-2 cells = assay: as above; assay type: in vitro ADME; conditions: drug incubated and measured, 120 minutes
How it was run: as §2

[4] = Drug from Example 1 administered 3 mg/kg p.o., lipid formulation
[5] = Drug from Example 1 administered 25 mg/kg p.o., lipid formulation
[6] = Drug from Example 1 administered 30 mg/kg p.o., lipid formulation
[7] = Drug from Example 1 administered 100 mg/kg p.o., lipid formulation

**Q.** Which results are given for `O=C(c1cc(-c2cc3c(cc2C(=O)N2Cc4ccccc4C[C@H]2CN2CCOCC2)OCO3)n2c1CCCC2)N(c1ccccc1)c1ccc(O)cc1` [Drug from Example 1, N-(4-hydroxyphenyl)-3-{6-[((3S)-3-(4-morpholinylmethyl)-3,4-dihydro-2(1H)-isoquinolinyl)carbonyl]-1,3-benzodioxol-5-yl}-N-phenyl-5,6,7,8-tetrahydro-1-indolizine carboxamide]?
**A.** solubility (Solubility in water): 40 µg/mL and 56.2 µM; Solubility at 10 μM ([1]; 10 μM): Insoluble; Solubility at 20 μM ([1]; 20 μM): Insoluble; Solubility at 50 μM ([1]; 50 μM): Insoluble; Solubility at 100 μM ([1]; 100 μM): Insoluble; Cmax ([2]; Drug from Example 1 administered 3 mg/kg p.o., lipid formulation (ethanol/PEG 300/water 10/40/50)): 295 ng/mL; AUC(0-t) [2, 4]: 225 ng·h/mL; Tmax [2, 4]: 15 min; AUC(0-t) [2, 5]: 20400 ng·h/mL; Cmax [2, 5]: 5070 ng/mL; Tmax [2, 5]: 120 min; AUC(0-t) [2, 6]: 24200 ng·h/mL; Cmax [2, 6]: 8580 ng/mL; Tmax [2, 6]: 60 min; AUC(0-t) [2, 7]: 148000 ng·h/mL; Cmax [2, 7]: 25900 ng/mL; Tmax [2, 7]: 30 min; Papp A→B at 120 min [3]: 0.65 ×10⁻⁶ cm/s; Yield (experiment yield), the drug after incubation of the drug (human Caco-2 cells): Yield (%) = 37; Fabs (predicted absorbed fraction in humans), the drug after incubation of the drug (human Caco-2 cells; A to B, 1 or 3 μM): Fabs (%) = 67

Reference: patent publication US9115159B2, “Phosphate compounds, a process for their preparation and pharmaceutical compositions containing them” (LES LABORATOIRES SERVIER, priority 2013, dated 2015)
